Laboratory results reported in ChEMBL document CHEMBL4000157, “Total Synthesis of (±)-Kuwanol E” (J Nat Prod, 2016).

Assay: Inhibition of wild type recombinant Mycobacterium tuberculosis PTPB using p-nitrophenyl phosphate as substrate preincubated for 10 mins followed by substrate addition measured for 10 mins by UV-VIS spectrophotometer

## CC(C)=CCc1c(O)ccc(C(=O)[C@@H]2[C@@H](c3ccc(O)cc3O)CC(C)=C[C@H]2c2c(O)cc(/C=C/c3ccc(O)cc3O)cc2O)c1O
  Ki: 1600 nM
